Tested on: eyelids
Test: topical application to the eyelids, eyelid retraction / eye-widening effect
Assay type: in vivo
Details: topically applied, alone or in combination
Excerpt: Topical treatments to which the current application is directed include ointments, creams, and solutions that contain one or more of the compounds travoprost, unoprostone, latanoprost, and bimatoprost, alone or in combination, and/or one or more chemically-related compounds and may also include pure forms of various additional types of prostaglandin, synthetic prostaglandin, and synthetic prostaglandin anologues. These ointments and solutions are topically applied to eyelids in order to treat ptosis and/or to improve facial appearance. The ointments and solution may include, in addition to the above-mentioned active ingredients, stabilizers, buffering compounds, salts, carriers, viscosity enhancers, colorants, emollients, emulsifiers, bactericidal and germicidal agents, preservatives, and other ingredients that improve shelf life, application, consistency, and compatibility with topical application, among other things. […] Either pure prostaglandin, synthetic prostaglandin, or synthetic prostaglandin analogues may be rubbed into the eyelid tissues or a relatively concentrated solution of prostaglandin in any of various organic solvents, including ethanol, or ethanol-water mixtures, can be applied to produce the effect. Prostaglandin, synthetic prostaglandin, or synthetic prostaglandin analogs may be additionally included in various eye shadows and other cosmetic products that are routinely applied to eyelids in order to produce the eye-widening cosmetic effect, as well as in many different mixtures, suspensions, solutions, powders, ointments, creams, and other substances.

SMILES	eyelid retraction (ameliorating ptosis and/or improving facial appearance)
CCNC(=O)CCCC=CCC1C(O)CC(O)C1C=CC(O)CCc1ccccc1 (stereo not shown) [bimatoprost, 7-[3,5-dihydroxy-2-(3-hydroxy-5-phenyl-pent-1-enyl)-cyclopentyl]-N-ethyl-hept-5-enamide]	cause the eyelids to retract more completely
CC(C)OC(=O)CCC/C=C\C[C@@H]1[C@@H](CC[C@@H](O)CCc2ccccc2)[C@H](O)C[C@@H]1O [latanoprost, isopropyl (Z)-7-[(1R,2R,3R,5S)-3,5-dihydroxy-2-[(3R)3-hydroxy-5-phenylpentyl]-cyclopentyl]hept-5-enoate]	cause the eyelids to retract more completely
CC(C)OC(=O)CCCC=CCC1C(O)CC(O)C1C=CC(O)COc1cccc(C(F)(F)F)c1 (stereo not shown) [travoprost, propan-2-yl 7-[3,5-dihydroxy-2-[3-hydroxy-4-[3-(trifluoromethyl)phenoxy]-but-1-enyl]-cyclopentyl]hept-5-enoate]	cause the eyelids to retract more completely
CCCCCCCC(=O)CC[C@@H]1[C@@H](C/C=C\CCCC(=O)OC(C)C)[C@@H](O)C[C@H]1O [unoprostone, isopropyl (Z)-7-[(1R,2R,3R,5S)-3,5-dihydroxy-2-(3-oxodecyl)cyclopentyl]hept-5-enoic acid]	cause the eyelids to retract more completely
